Data from US9175283B2, “Use polysaccharides for promotion of enzymatic activity” (Genzyme Corporation, priority 2006, dated 2015).

Test system: sialidase, β-galactosidase, and β-hexosaminidase
Experiment: Promotion of Target Enzyme activity: oligosaccharide modification of column-bound GCR substrate, FACE assay
Format: biochemical
Settings: pH 5.7; for % Modification (FACE Assay): additive at 10%, sialidase 210, β-galactosidase 33, β-hexosaminidase 2500 U/L sv, approx. 24 hours, room temperature; for Promotion of enzymatic activity of the Target Enzymes versus no additive (in words): additive concentrations of Table 9
Description: The FACE assay is a preferred method of monitoring the enzymatic activity of the oligosaccharide/polysaccharide enzymes (such as the Target Enzymes in certain Examples herein) by determining the extent of modification of a substrate (including, but not limited to, a protein, glycoprotein or oligosaccharide) of a Target Enzyme(s). Using a FACE assay, a higher FACE number is indicative of a greater degree of modification and a greater degree of Target Enzyme(s) activity. The FACE assays are known in the art.
In the Examples herein, when the Target Enzymes were sialidase, β-galactosidase, and β-hexosaminidase, a FACE assay was used to determine the percentage of modified oligosaccharide species in the GCR substrate. Specifically, GCR was treated with N-glycanase (approximately 8 U of N-glycanase per 40 μg GCR) to release intact N-linked oligosaccharide chains. The released oligosaccharides were then labeled with the fluorophore: ANTS (8-aminonapthalene-1,3,6-trisulfonic acid and separated on oligosaccharide profiling gel (Glyko®/Prozyme®, San Leandro, Calif.) as per the manufacturers instructions. A dextran reference ladder standard (Glyko®)/Prozyme®, San Leandro, Calif.) was also run on the gel along with reference oligosaccharides, GlcNAc2(+Fuc)Man3 and GlcNAc2(-Fuc)Man3, Glyko®/Prozyme®, San Leandro, Calif.). Bands on the gel were then quantified by scanning the gel for fluorescence using a SE2000 imager system with fluorescence imaging software (Glyko®/Prozyme®, San Leandro, Calif.).
The ratio (%) of the fluorescent intensity of the bands representing two core structures, GlcNAc2(Fuc)Man3 and GlcNAc2Man3 (core structures), to the total intensity of bands with mobility ≦GlcNac2Man3 in a given lane provided the percentage of modified GCR. Since GCR acts as a substrate for the three Target Enzymes, sialidase, β-galactosidase, and β-hexosaminidase, the FACE results correlate to the activity of the Target Enzymes against GCR. For GCR, the FACE values can range from about 0 to about 100%, about 3% to about 90% and about 5% to about 85%.
HES was prepared as a 20% (w/v) stock solution by dissolving solid HES into buffer of the appropriate pH. For this Example, 100 mM sodium citrate, 5 mM calcium chloride, pH 5.7 buffer was used. The 20% […] stock solution was used to make a final concentration of 5% w/L sv HES in the Target Enzyme cocktails. […]
Target Enzyme cocktails containing three Target Enzymes were made by combining sialidase (210 U/L sv), β-galactosidase (33 U/L sv), β-hexosaminidase (2500 U/L sv), and either Hmxl (14 mL/L sv) or HES (5% w/L sv). […] The enzymatic activity of GCR is measured using standard assays (see, e.g., U.S. Pat. No. 6,451,600). […]

SMILES | % Modification (FACE Assay) | Promotion of enzymatic activity of the Target Enzymes versus no additive (in words)
OCC(O)CO [Glycerol, glycerol] | 34.2% | showed a diminution of Target Enzyme promotion
CC(O)CO (stereo not shown) [Propylene glycol, propylene glycol] | 51.1% | did not show Target Enzyme promotion
